Our source for the RP-LC retention time values is the METLIN SMRT retention time set (Domingo-Almenara et al. 2019).

This data set in a line: gradient 5% acetonitrile 3 min, to 50% in 2 min, to 85% in 15 min, held 3 min, 100 µL/min. The following applies: column: Zorbax Extend-C18 2.1 x 50 mm; eluents: water / acetonitrile, 0.1% formic acid. Put shortly:
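A Zorbax Extend-C18 column (2.1 × 50 mm, 1.8 μm) run at 100 μL/min with water and acetonitrile, both containing 0.1% formic acid, separated mixtures of ~100 pure standards. The HPLC was coupled to a quadrupole time-of-flight mass spectrometer operated in positive and negative ionization mode, with dead and dwell volumes of 40 μL and 900 μL. Each retention time was taken from a computationally picked adduct peak that was then manually inspected.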
Turning to `CC1CC(=O)N(CC(=O)Nc2ccc(C(F)(F)F)cc2)c2ccccc2S1(=O)=O` (centres undefined), the RP-LC retention time was found to be 904 s.

For the molecule `Cc1c(Cl)cccc1NC(=O)C1CCCN(c2nc3c(s2)c(C)nn3-c2cccc(F)c2)C1` (centres undefined), the RP-LC retention time stood at 1200 s.

For `O=C(O)c1nnn(-c2ccc3c(c2)CCC3)c1-c1ccccn1`, the RP-LC retention time was determined as 750 s.

`COc1ccc(NC(=O)C2CCCN(c3nnc4ccccn34)C2)cc1` (centres undefined): the RP-LC retention time amounted to 637 s.

On to `COCc1nc2ccccc2n1CC(=O)N(c1ccccc1)C(C)C`, for which the RP-LC retention time amounted to 707 s.

For the molecule `Cc1ccc(S(=O)(=O)N2CCCC2c2nc(-c3ccccc3C)no2)cc1Cl` (centres undefined), the RP-LC retention time is 1290 s.

`Cc1cc(Cl)ccc1NS(=O)(=O)c1cc2c(s1)CCN(C(=O)C1CC1)C2` showed an RP-LC retention time of 923 s.

As to `CCCn1cc(C(=O)Nc2ccc(OC)c(OC)c2)c(=O)c2ccc(C)nc21`, the RP-LC retention time was 1020 s.

`Clc1ccc(C2Cn3nnc(-c4nc(-c5ccccn5)no4)c3CO2)cc1` (centres undefined) had an RP-LC retention time of 936 s.

The molecule `Oc1cccc(-c2nc3cnc(Br)cn3c2Nc2cccc(C(F)(F)F)c2)c1` returned an RP-LC retention time of 902 s.

Turning to `CN1c2ccc(Cl)cc2C(=O)NC12CCN(C(=O)c1ccc3c(c1)OCO3)CC2`, the RP-LC retention time was found to be 769 s.

The molecule `O=C(Nc1ccccc1)N1CCC(n2cnc3ccc(F)cc3c2=O)CC1` yielded an RP-LC retention time of 742 s.

For `O=C(Nc1ccc(F)cc1)N1CC2CN(S(=O)(=O)c3ccccc3)CC(C1)O2`, the RP-LC retention time came out at 752 s.

On to `COc1ccc(Br)cc1CNC(=O)C1CCN(C(=O)c2cc3ccsc3[nH]2)CC1`, for which the RP-LC retention time came to 839 s.

Consider `CC(=O)N1CCc2[nH]c3ccc(C(=O)NCc4ccc(N5CCN(C)CC5)cc4)cc3c2C1`, for which the RP-LC retention time was determined as 573 s.

Molecule `Cc1ccc(CNC(=O)C2(C)CCN(C(=O)Nc3ccc(C)c(Cl)c3)CC2)cc1` displayed an RP-LC retention time of 972 s.

Consider `CC(=O)NCCc1csc(C2CCN(C(=O)C3CCC3)CC2)n1`, for which the RP-LC retention time was found to be 625 s.

Consider `Cc1ccc(CNC(=O)C2CCN(S(C)(=O)=O)c3cc(Cl)ccc3O2)cc1` (centres undefined), for which the RP-LC retention time came out at 955 s.

`O=C(CCc1nnc2c3cc(-c4ccccc4)nn3ccn12)N1CCN(C(=O)c2ccco2)CC1` registered an RP-LC retention time of 679 s.

As for `Cc1ccc(N2CCC(NC(=O)Nc3cc(Cl)ccc3C)C2=O)cc1` (centres undefined), the RP-LC retention time is 956 s.

Turning to `COc1ccc(N(C)C(=O)c2nc(C)n(C3CCN(S(C)(=O)=O)CC3)c2C)cc1`, the RP-LC retention time is 600 s.

With `CCN1CCC2(CC1)N=C(c1ccccc1)CC(c1cccc(OC)c1O)N2` (centres undefined), the RP-LC retention time worked out at 584 s.

Consider `N#Cc1ccccc1NC(=O)CSc1cc(N2CCN(c3ccccc3F)CC2)ncn1`, for which the RP-LC retention time is 1120 s.

`CCN(CC)C(=O)C1CCN(S(C)(=O)=O)c2cc(Cl)ccc2O1` (centres undefined) displayed an RP-LC retention time of 821 s.

`O=C(NC1CCN(c2cc(-c3cccs3)[nH]n2)C1)c1ccc(F)cc1F` (centres undefined) displayed an RP-LC retention time of 718 s.

Turning to `COc1cc(-c2nc3c(C)cccn3c2Nc2ccc(C)cc2)ccc1O`, the RP-LC retention time was determined as 684 s.

In turn, `COCc1cc(=O)n(CC(=O)NCc2ccccc2Cl)c(N)n1` displayed an RP-LC retention time of 619 s.

`CC1(c2ccccc2)O[C@@H]2C[C@H]3[C@@H]4CCC5=CC(=O)C=C[C@]5(C)[C@@]4(F)[C@@H](O)C[C@]3(C)[C@]2(C(=O)CO)O1` (some centres undefined): the RP-LC retention time was 870 s.

Regarding `CCOC(=O)C1CCN(S(=O)(=O)c2cc(-c3c(CC)noc3NC(C)=O)ccc2OC)CC1`, the RP-LC retention time came to 797 s.

Regarding `O=C1CCCc2cc(S(=O)(=O)N3CCN(c4ccccn4)CC3)ccc2N1`, the RP-LC retention time was 589 s.

In the case of `Cc1noc(-c2ccc(OC3CN(C(=O)Cc4ccccc4)C3)cc2)n1`, the RP-LC retention time turned out to be 924 s.

On to `Clc1ccccc1Cc1nc(-c2ccc(OC3CCNC3)cc2)no1` (centres undefined), for which the RP-LC retention time was 704 s.

In turn, `COc1ccc(-n2ncc3c(=O)n(Cc4nc(-c5cccc(C(F)(F)F)c5)no4)cnc32)cc1` yielded an RP-LC retention time of 1130 s.

Molecule `Cc1nn(CC(=O)NCC2CCCO2)c(=O)c2nn(-c3ccccc3)c(C)c12` (centres undefined) had an RP-LC retention time of 651 s.

Consider `CCNC(=O)c1cnn(-c2cc(-c3nc(C)no3)ccn2)c1C`, for which the RP-LC retention time amounted to 706 s.

Turning to `COc1ccc(CCNc2nc3ccncc3n(C(C)C)c2=O)cc1OC`, the RP-LC retention time was 631 s.

Regarding `COCCN1CCCc2ccc(NC(=O)c3cccc(Br)c3)cc21`, the RP-LC retention time amounted to 993 s.

Regarding `O=c1c2sccc2n(Cc2nc(-c3ccc(OC(F)(F)F)cc3)no2)c(=O)n1-c1ccccc1`, the RP-LC retention time stood at 1080 s.

Molecule `O=S(=O)(c1cccc(Cl)c1)N1CCc2nc(-c3ccccc3)ncc2C1` came in with an RP-LC retention time of 1170 s.

The molecule `CCSc1nc2ccc(NS(=O)(=O)c3cc(F)cc(F)c3)cc2s1` registered an RP-LC retention time of 1050 s.

For the molecule `Cc1sc(-c2cc(C(F)(F)F)on2)cc1S(=O)(=O)NCC(C)c1ccccc1` (centres undefined), the RP-LC retention time amounted to 1230 s.

Take `O=C(Cn1nc(N2CCCC2)c2ccccc2c1=O)Nc1ccc(F)c(F)c1`: the RP-LC retention time was 950 s.

Consider `CCNS(=O)(=O)c1cccnc1Nc1ccccc1`, for which the RP-LC retention time was 904 s.

Molecule `COc1cccc(CNC(=O)C2CCc3nc(N4CCOCC4)ncc3C2)c1` (centres undefined) came in with an RP-LC retention time of 660 s.

The molecule `O=C(NC1CCN(C(=O)C2CC2)C1)c1ccc(F)cc1` (centres undefined) gave an RP-LC retention time of 666 s.

With `COCc1ncc(C)n1CC1CN(C(=O)C2(c3ccccc3)CC2)C1`, the RP-LC retention time was 621 s.

In the case of `O=C(NC1CC1)c1ccc2c(c1)CCN2C(=O)C1CC1`, the RP-LC retention time was 673 s.

In turn, `Cc1noc(C)c1CC(=O)N1CCC2(CC1)C(=O)N(C)c1ccccc12` came in with an RP-LC retention time of 720 s.

For the molecule `CC(C)c1cc(N2CCN(C(=O)c3ccc4c(c3)OCO4)CC2)nc2nncn12`, the RP-LC retention time is 610 s.

For the molecule `CC1=C(c2ccc(Cl)cc2)S(=O)(=O)N=C1N1CCCN(C(=O)c2ccccn2)CC1`, the RP-LC retention time turned out to be 765 s.

Turning to `CCn1c(=O)sc2cc(S(=O)(=O)N3CCC(C(=O)Nc4ccc(F)cc4F)CC3)ccc21`, the RP-LC retention time turned out to be 921 s.

With `CCOc1ccccc1NC(=O)C1CCc2nc(N3CCOCC3)ncc2C1` (centres undefined), the RP-LC retention time was 777 s.

Molecule `CSc1cccc(NC(=O)C2CCCN(C(=O)Cc3cccc4ccccc34)C2)c1` (centres undefined) had an RP-LC retention time of 1040 s.

`COc1ccc(S(=O)(=O)N2CCC(OCCOCc3ccccc3)CC2)cc1` returned an RP-LC retention time of 1050 s.

In turn, `COc1ccccc1NC(=O)CN1CCN(Cc2ccc(C)cc2)C(=O)C1=O` had an RP-LC retention time of 771 s.

Molecule `CCCCOC(=O)C1=CN(Cc2ccccc2)S(=O)(=O)N=C1C` came in with an RP-LC retention time of 1080 s.

Consider `CC(NC(=O)c1ccccc1F)C(=O)N1CCN(c2ccccn2)CC1` (centres undefined), for which the RP-LC retention time came to 574 s.

For `CCCOC(=O)C1=C(C)NC2=C(C(=O)CCC2)C1c1ccc(OC)c(OC)c1OC` (centres undefined), the RP-LC retention time worked out at 791 s.

`CC(=O)N1c2ccc(S(=O)(=O)NCc3ccc4c(c3)CCN4C(=O)C(C)C)cc2CC1C` (centres undefined) displayed an RP-LC retention time of 801 s.

With `O=C(Cn1nc2n(c1=O)CCCC2)Nc1ccc(Cl)cc1`, the RP-LC retention time is 688 s.

For the molecule `Cc1ccc(C)c(NC(=O)Cn2c(C)cc(-c3nnc(C4CC4)o3)c2C)c1`, the RP-LC retention time turned out to be 851 s.

Molecule `Cc1ccccc1CNC(=O)CN1CCN(Cc2ccccc2)C1=O` had an RP-LC retention time of 806 s.

For `COCc1nc(C2CCN(S(=O)(=O)c3ccc(C#N)cc3)C2)no1` (centres undefined), the RP-LC retention time came out at 785 s.

In turn, `CCc1ccc(Oc2cc(N3CCC(C(=O)NCCc4ccccc4)CC3)ncn2)cc1` registered an RP-LC retention time of 998 s.

Molecule `CNc1oc(-c2ccco2)nc1S(=O)(=O)c1ccc(F)cc1` yielded an RP-LC retention time of 809 s.

`Cc1ccc(C(=O)N2CCc3ccc(CNC(=O)NC(C)C)cc32)cc1` displayed an RP-LC retention time of 808 s.

In turn, `CCCCN(CC)C(=O)c1cc(NC(=O)CC(C)C)cnc1N1CCNCC1` had an RP-LC retention time of 632 s.

`O=C1CC(c2cc(F)cc(F)c2)Cc2nc(N3CCN(c4ccccc4)CC3)ncc21` (centres undefined) came in with an RP-LC retention time of 1270 s.

In turn, `CC(=O)Nc1ccc(S(=O)(=O)N2CCN(S(=O)(=O)N(C)C)CC2)cc1` had an RP-LC retention time of 653 s.

Consider `CCOc1ccccc1-c1noc(Cn2c(=O)n(Cc3cccc(OC)c3)c(=O)c3sccc32)n1`, for which the RP-LC retention time was found to be 1110 s.

`Cn1c(C(=O)NC2CCN(Cc3ccccc3)CC2)cc2c(=O)oc3ccccc3c21` registered an RP-LC retention time of 667 s.

The molecule `COC(=O)c1ccccc1NC(=O)N1CCN(c2nc3ccccc3n2C)CC1` returned an RP-LC retention time of 680 s.

For the molecule `Cc1noc(CNC(=O)C2CCN(C(=O)c3csc(-c4ccccc4)n3)CC2)n1`, the RP-LC retention time is 650 s.

As to `CCc1cc(C2CCCN2C(=O)NCCc2ccccc2)on1` (centres undefined), the RP-LC retention time was determined as 789 s.

In turn, `CS(=O)(=O)Nc1ccc(CC(=O)NC2CC2)cc1` returned an RP-LC retention time of 585 s.

Molecule `COc1ccc(N2CCN(C(CNC(=O)C(=O)Nc3ccon3)c3ccco3)CC2)cc1` (centres undefined) showed an RP-LC retention time of 591 s.

Consider `CCc1ccc(-n2ncc3c(=O)n(Cc4nc(-c5ccc(OC)cc5)no4)cnc32)cc1`, for which the RP-LC retention time was determined as 1120 s.

`Cc1[nH]c(C(=O)N2CCCC(C(=O)NC(C)CCc3ccccc3)C2)c(C)c1C(=O)OC(C)C` (centres undefined) showed an RP-LC retention time of 955 s.

For the molecule `CN(C)CC1(O)CCC2(CCN(C(=O)C3CCCC3)CC2)CC1`, the RP-LC retention time came out at 591 s.
